What was measured:
[1] = target: T1, DNA topoisomerase 1 (Homo sapiens) (UniProt P11387); assay: Inhibition of recombinant human Top1 expressed in Saccharomyces cerevisiae null strain RS190 assessed as decrease in relaxation of supercoiled plasmid DNA at 100 uM using supercoiled plasmid DNA as substrate incubated for 15 sec by red staining based DNA relaxation assay relative to camptothecin
T1 sequence (whole entry): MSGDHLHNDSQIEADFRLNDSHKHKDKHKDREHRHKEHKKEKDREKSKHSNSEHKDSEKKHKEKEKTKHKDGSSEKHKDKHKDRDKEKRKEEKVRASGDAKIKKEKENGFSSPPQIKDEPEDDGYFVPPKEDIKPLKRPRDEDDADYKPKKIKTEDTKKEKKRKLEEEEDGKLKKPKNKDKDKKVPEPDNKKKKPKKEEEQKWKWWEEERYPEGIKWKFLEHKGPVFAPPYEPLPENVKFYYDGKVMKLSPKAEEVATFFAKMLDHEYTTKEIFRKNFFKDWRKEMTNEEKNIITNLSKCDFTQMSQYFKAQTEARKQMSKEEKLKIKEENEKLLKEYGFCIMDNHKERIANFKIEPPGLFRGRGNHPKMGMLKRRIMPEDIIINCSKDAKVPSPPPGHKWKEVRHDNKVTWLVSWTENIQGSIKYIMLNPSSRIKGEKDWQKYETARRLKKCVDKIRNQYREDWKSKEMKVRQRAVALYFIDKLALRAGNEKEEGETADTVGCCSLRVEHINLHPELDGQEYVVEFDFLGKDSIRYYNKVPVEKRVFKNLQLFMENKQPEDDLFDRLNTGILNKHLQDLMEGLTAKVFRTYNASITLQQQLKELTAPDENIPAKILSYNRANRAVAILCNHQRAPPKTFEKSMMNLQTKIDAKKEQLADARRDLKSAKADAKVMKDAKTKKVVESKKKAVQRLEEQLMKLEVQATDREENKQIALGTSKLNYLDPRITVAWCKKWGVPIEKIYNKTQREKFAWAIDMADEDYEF

[2] = target: T1, DNA topoisomerase 1 (Homo sapiens); assay: Inhibition of recombinant human Top1 expressed in Saccharomyces cerevisiae null strain RS190 assessed as decrease in relaxation of supercoiled plasmid DNA at 100 uM using supercoiled plasmid DNA as substrate incubated for 1 min by red staining based DNA relaxation assay relative to camptothecin
[3] = target: T1, DNA topoisomerase 1 (Homo sapiens); assay: Inhibition of recombinant human Top1 expressed in Saccharomyces cerevisiae null strain RS190 assessed as decrease in relaxation of supercoiled plasmid DNA at 100 uM using supercoiled plasmid DNA as substrate incubated for 3 min by red staining based DNA relaxation assay relative to camptothecin
A549 = assay: Antiproliferative activity against human A549 cells incubated for 48 hrs by CCK8 assay; assay type: functional, cell-based; details: A549, 48 h
SK-OV-3 = assay: Antiproliferative activity against human SKOV3 cells incubated for 48 hrs by CCK8 assay; assay type: functional, cell-based; details: SK-OV-3, 48 h
MRC5 = assay: Cytotoxicity against human MRC5 cells incubated for 48 hrs by CCK8 assay; assay type: cell-based; details: MRC5, 48 h

Compound	inhibition [1] [%]	inhibition [2] [%]	inhibition [3] [%]	IC50 (A549) [µM]	IC50 (SK-OV-3) [µM]	IC50 (MRC5) [µM]
COc1ccc2c(n1)[C@@H](c1ccccc1)[C@@H]1C(=O)Oc3ccccc3[C@H]1N2 (relative stereo)	4	4	4	> 50	> 50	> 50
O=c1oc2ccc(F)cc2c2nc3cccnc3c(-c3ccccc3)c12	26	2	2	> 50	> 50	> 50
Brc1ccc2nc3c(c(-c4ccccc4)c2n1)COc1ccccc1-3	4	4	4	> 50	> 50	> 50
COc1ccc2nc3c(c(-c4ccccc4)c2n1)c(=O)oc1ccccc13	72	12	12	> 50	> 50	> 50
Cc1ccc2c(c1)-c1nc3cccnc3c(-c3ccccc3)c1CO2	2	2	2	> 50	> 50	> 50
c1ccc(-c2c3c(nc4cccnc24)-c2ccccc2OC3)cc1	30	14	2	> 50	> 50	> 50
Fc1ccc(-c2c3c(nc4cccnc24)-c2ccccc2OC3)cc1F	84	6	6	> 50	> 50	> 50
Fc1ccc2c(c1)-c1nc3cccnc3c(-c3ccccc3)c1CO2	2	2	2	> 50	> 50	> 50
O=C1Oc2ccc(F)cc2[C@H]2Nc3cccnc3[C@@H](c3ccccc3)[C@H]12 (relative stereo)	30	25	2	> 50	> 50	> 50

The next lines start with results.

inhibition [1] [%]	inhibition [2] [%]	inhibition [3] [%]	IC50 (A549) [µM]	IC50 (SK-OV-3) [µM]	Compound	IC50 (MRC5) [µM]
5	7	5	25.4	> 50	O=C1Oc2ccccc2[C@H]2Nc3cccnc3[C@@H](c3ccccc3)[C@H]12 (relative stereo)	> 50
4	4	4	> 50	> 50	O=C1Oc2ccccc2[C@H]2Nc3ccc(Br)nc3[C@@H](c3ccccc3)[C@H]12 (relative stereo)	> 50
4	4	4	29	> 50	O=c1oc2ccccc2c2nc3ccc(Br)nc3c(-c3ccccc3)c12	> 50
5	4	1	1.03	1.75	c1ccc([C@@H]2c3ncccc3N[C@@H]3c4ccccc4OC[C@@H]23)cc1 (relative stereo)	> 50
86	16	15	11.7	> 50	COc1ccc2nc3c(c(-c4ccccc4)c2n1)COc1ccccc1-3	> 50
70	69	19	7.25	12.7	Cc1ccc2c(c1)[C@H]1Nc3cccnc3[C@@H](c3ccccc3)[C@@H]1CO2 (relative stereo)	> 50
29	30	29	17.9	> 50	COc1ccc(-c2c3c(nc4cccnc24)-c2ccccc2OC3)cc1	> 50
81	26	12	5.43	> 50	COc1ccc2c(n1)[C@@H](c1ccccc1)[C@@H]1COc3ccccc3[C@H]1N2 (relative stereo)	> 50
25	2	2	9.03	> 50	O=c1oc2ccccc2c2nc3cccnc3c(-c3ccccc3)c12	> 50
2	1	1	11.3	> 50	Fc1ccc2c(c1)[C@H]1Nc3cccnc3[C@@H](c3ccccc3)[C@@H]1CO2 (relative stereo)	> 50

— ChEMBL document CHEMBL4359829, “Straightforward synthesis and biological evaluation as topoisomerase I inhibitors and antiproliferative agents of hybrid Chromeno[4,3-b][1,5]Naphthyridines and Chromeno[4,3-b][1,5]Naphthyridin-6-ones” (Eur J Med Chem, 2019)
